Data from PMC4309170, “The dipeptidyl peptidase IV inhibitors vildagliptin and K-579 inhibit a phospholipase C: a case of promiscuous scaffolds in proteins” (F1000Research, 2015).

Target: phosphoinositide-specific phospholipase C (PI-PLC) (Bacillus cereus, UniProt P14262)
Assay: PI-PLC-induced liposome (LUV) aggregation assay, turbidity at […] nm, dose-response
Assay type: biochemical

Chain of phosphoinositide-specific phospholipase C (PI-PLC) (P14262 32-329 limits assumed): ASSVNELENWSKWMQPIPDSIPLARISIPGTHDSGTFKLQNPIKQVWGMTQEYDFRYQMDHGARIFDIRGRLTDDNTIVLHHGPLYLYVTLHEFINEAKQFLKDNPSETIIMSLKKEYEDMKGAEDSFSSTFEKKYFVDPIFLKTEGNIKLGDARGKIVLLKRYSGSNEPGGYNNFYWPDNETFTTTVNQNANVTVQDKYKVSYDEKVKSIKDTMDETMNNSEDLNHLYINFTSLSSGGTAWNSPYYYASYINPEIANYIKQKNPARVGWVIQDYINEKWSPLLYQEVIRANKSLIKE

N#C[C@@H]1CCCN1C(=O)CNC12CC3CC(CC(O)(C3)C1)C2 [LAF-237, 1-[[(3-hydroxy-1-adamantyl)amino]acetyl]-2-cyano-(S)-pyrrolidine]
IC50: 100 µM
